According to patent publication US10131652B2, “Pyrimidinyloxy benzene derivatives as herbicides” (E. I. DU PONT DE NEMOURS AND COMPANY, priority 2014, dated 2018):

Columns and labels:
Format in all cases: in vivo
[1] = system: Italian ryegrass (Lolium multiflorum); assay: Test B pre-/postemergence plant response
From the text: (§1) Seeds of plant species selected from bamyardgrass (Echinochloa crus-galli), kochia (Kochia scoparia), ragweed (common ragweed, Ambrosia elatior), Italian ryegrass (Lolium multiflorum), large (Lg) crabgrass (Digitaria sanguinalis), giant foxtail (Setaria faberii), momingglory (Ipomoea spp.), pigweed (Amaranthus retroflexus), velvetleaf (Abutilon theophrasti), wheat (Triticum aestivum), and corn (Zea mays) were planted into a blend of loam soil and sand and treated preemergence with a directed soil spray using test chemicals formulated in a non-phytotoxic solvent mixture which included a surfactant. At the same time, plants selected from these crop and weed species and also blackgrass (Alopecurus myosuroides), and galium (catchweed bedstraw, Galium aparine) were planted in pots containing the same blend of loam soil and sand and treated with postemergence applications of test chemicals formulated in the same manner. Plants ranged in height from 2 to 10 cm and were in the one- to two-leaf stage for the postemergence treatment. Treated plants and untreated controls were maintained in a greenhouse for approximately 10 days, after which time all treated plants were compared to untreated controls and visually evaluated for injury. Plant response ratings, summarized in Table B, are based on a 0 to 100 scale where 0 is no effect and 100 is complete control. A dash (-) response means no test result.

[2] = system: barnyardgrass (Echinochloa crus-galli); assay: Test B pre-/postemergence plant response
From the text: as §1

[3] = system: corn (Zea mays); assay: Test B pre-/postemergence plant response
From the text: as §1

[4] = system: giant foxtail (Setaria faberii); assay: Test B pre-/postemergence plant response
From the text: as §1

[5] = system: kochia (Kochia scoparia); assay: Test B pre-/postemergence plant response
From the text: as §1

[6] = system: pigweed (Amaranthus retroflexus); assay: Test B pre-/postemergence plant response
From the text: as §1

[7] = system: ragweed (common ragweed, Ambrosia elatior); assay: Test B pre-/postemergence plant response
From the text: as §1

[8] = system: wheat (Triticum aestivum); assay: Test B pre-/postemergence plant response
From the text: as §1

[9] = system: blackgrass (Alopecurus myosuroides); assay: Test B postemergence plant response
From the text: (§2) At the same time, plants selected from these crop and weed species and also blackgrass (Alopecurus myosuroides), and galium (catchweed bedstraw, Galium aparine) were planted in pots containing the same blend of loam soil and sand and treated with postemergence applications of test chemicals formulated in the same manner. Plants ranged in height from 2 to 10 cm and were in the one- to two-leaf stage for the postemergence treatment. Treated plants and untreated controls were maintained in a greenhouse for approximately 10 days, after which time all treated plants were compared to untreated controls and visually evaluated for injury. Plant response ratings, summarized in Table B, are based on a 0 to 100 scale where 0 is no effect and 100 is complete control. A dash (-) response means no test result.

[10] = system: galium (catchweed bedstraw, Galium aparine); assay: Test B postemergence plant response
From the text: as §2

[11] = system: barnyardgrass (Echinochloa crus-galli); assay: Test C flooded paddy test plant response; details: Flood, 250 g ai/ha; scale of 0 to 100 where 0 is no effect and 100 is complete control; 13 to 15 days
Experimental: (§3) Plant species in the flooded paddy test selected from rice (Oryza sativa), small-flower umbrella sedge (Cyperus difformis), ducksalad (Heteranthera limosa), and bamyardgrass (Echinochloa crus-galli) were grown to the 2-leaf stage for testing. At time of treatment, test pots were flooded to 3 cm above the soil surface, treated by application of test compounds directly to the paddy water, and then maintained at that water depth for the duration of the test. Treated plants and controls were maintained in a greenhouse for 13 to 15 days, after which time all species were compared to controls and visually evaluated. Plant response ratings, summarized in Table C, are based on a scale of 0 to 100 where 0 is no effect and 100 is complete control. A dash (-) response means no test result.

[12] = system: ducksalad (Heteranthera limosa); assay: Test C flooded paddy test plant response; details: Flood, 250 g ai/ha; scale of 0 to 100 where 0 is no effect and 100 is complete control; 13 to 15 days
Experimental: as §3

[13] = system: rice (Oryza sativa); assay: Test C flooded paddy test plant response; details: Flood, 250 g ai/ha; scale of 0 to 100 where 0 is no effect and 100 is complete control; 13 to 15 days
Experimental: as §3

[14] = system: small-flower umbrella sedge (Cyperus difformis); assay: Test C flooded paddy test plant response; details: Flood, 250 g ai/ha; scale of 0 to 100 where 0 is no effect and 100 is complete control; 13 to 15 days
Experimental: as §3

[15] = 31 g ai/ha, Postemergence, 0 to 100 scale, 0 no effect, 100 complete control
[16] = 125 g ai/ha, postemergence, 0 to 100 scale, 0 no effect, 100 complete control
[17] = Preemergence, 31 g ai/ha, 0 to 100 scale (0 no effect, 100 complete control)
[18] = Preemergence, 125 g ai/ha, 0 to 100 scale where 0 is no effect and 100 is complete control
[19] = Postemergence, 500 g ai/ha, 0 to 100 scale (0 no effect, 100 complete control)
[20] = Preemergence, 500 g ai/ha, 0 to 100 scale where 0 is no effect and 100 is complete control

N#Cc1cc(-c2ccccc2Oc2ncc(Cl)cn2)no1 [Compound 38]
Plant response rating, Ryegrass, Italian [1, 15]: 0
Plant response rating, Ryegrass, Italian [1, 16]: 0
Ryegrass, Italian plant response rating [1, 17]: 0
Plant response rating, Ryegrass, Italian [1, 18]: 0
Plant response rating, Barnyardgrass [2, 15]: 0
Plant response rating, Barnyardgrass [2, 16]: 0
Barnyardgrass plant response rating [2, 17]: 0
Plant response rating, Barnyardgrass [2, 18]: 0
Plant response rating, Corn [3, 15]: 0
Plant response rating, Corn [3, 16]: 0
Plant response rating, Foxtail, Giant [4, 15]: 0
Plant response rating, Foxtail, Giant [4, 16]: 0
Foxtail, Giant plant response rating [4, 17]: 0
Plant response rating, Foxtail, Giant [4, 18]: 0
Plant response rating, Kochia [5, 15]: 0
Plant response rating, Kochia [5, 16]: 30
Kochia plant response rating [5, 17]: 0
Plant response rating, Kochia [5, 18]: 0
Plant response rating, Pigweed [6, 15]: 0
Plant response rating, Pigweed [6, 16]: 20
Pigweed plant response rating [6, 17]: 0
Plant response rating, Pigweed [6, 18]: 40
Plant response rating, Ragweed [7, 15]: 0
Plant response rating, Ragweed [7, 16]: 0
Ragweed plant response rating [7, 17]: 0
Plant response rating, Ragweed [7, 18]: 0
Plant response rating, Wheat [8, 15]: 0
Plant response rating, Wheat [8, 16]: 0
Plant response rating, Blackgrass [9, 15]: 0
Plant response rating, Blackgrass [9, 16]: 0
Plant response rating, Galium [10, 15]: 20
Plant response rating, Galium [10, 16]: 30
Barnyardgrass plant response rating [11]: 0
Ducksalad plant response rating [12]: 60
Rice plant response rating [13]: 0
Sedge, Umbrella plant response rating [14]: 0

Cn1nnnc1-c1ccccc1Oc1ncc(Cl)cn1 [Compound 47]
Plant response rating, Ryegrass, Italian [1, 16]: 0
Plant response rating, Ryegrass, Italian [1, 19]: 0
Plant response rating, Ryegrass, Italian [1, 18]: 0
Plant response rating, Ryegrass, Italian [1, 20]: 0
Plant response rating, Barnyardgrass [2, 16]: 0
Plant response rating, Barnyardgrass [2, 19]: 0
Plant response rating, Barnyardgrass [2, 18]: 0
Plant response rating, Barnyardgrass [2, 20]: 0
Plant response rating, Corn [3, 16]: 0
Plant response rating, Corn [3, 19]: 0
Plant response rating, Foxtail, Giant [4, 16]: 0
Plant response rating, Foxtail, Giant [4, 19]: 50
Plant response rating, Foxtail, Giant [4, 18]: 10
Plant response rating, Foxtail, Giant [4, 20]: 30
Plant response rating, Kochia [5, 16]: 60
Plant response rating, Kochia [5, 19]: 80
Plant response rating, Kochia [5, 18]: 60
Plant response rating, Kochia [5, 20]: 70
Plant response rating, Pigweed [6, 16]: 50
Plant response rating, Pigweed [6, 19]: 70
Plant response rating, Pigweed [6, 18]: 30
Plant response rating, Pigweed [6, 20]: 60
Plant response rating, Ragweed [7, 16]: 20
Plant response rating, Ragweed [7, 19]: 30
Plant response rating, Ragweed [7, 18]: 10
Plant response rating, Ragweed [7, 20]: 60
Plant response rating, Wheat [8, 16]: 0
Plant response rating, Wheat [8, 19]: 10
Plant response rating, Blackgrass [9, 16]: 0
Plant response rating, Blackgrass [9, 19]: 0
Plant response rating, Galium [10, 16]: 30
Plant response rating, Galium [10, 19]: 60
Barnyardgrass plant response rating [11]: 0
Ducksalad plant response rating [12]: 0
Rice plant response rating [13]: 0
Sedge, Umbrella plant response rating [14]: 0
